Values joined by “and” are separate entries in the source; they are usually repeats but may differ in a detail not shown here. Equal values may be shown once.
What was measured:
[1] = test system: type I collagen in the ECM; experiment: Assay of type I collagen in the ECM (anticollagen I antibody, europium TRF, Delfia) after NH4OH lysis of fibroblasts; format: cell-based, human; parameters: key to Coll I Mean: europium fluorescence normalized to measured dsDNA; conditions: for Coll I (RFU) Mean: 48 hours, donor; for Versus control Mean (Coll I): control = 100.00; for Coll I Mean / Ratio: Coll I/DNA Mean / Stat Mean (Coll I/DNA, control = 100.00): ECM
Experimental: After 48 hours of culture postconfluency, the culture medium was removed and discarded. A lysis step was carried out: 110 μl of an ammonium hydroxide solution at 20 mM for 10 minutes at room temperature and with stirring. The lysate was collected and analysed. The double-stranded DNA contained in the lysate was assayed by using the bisbenzimide method (Picogreen Kit, Invitrogen). The collagen in the ECM was assayed directly on the ECM by using an anticollagen I antibody. A secondary antibody conjugated to europium was used with a detection reagent and the fluorescence was measured. (Delfia® kit—Perkin Elmer). The fluorescence results were rationalized relative to the measured dsDNA rate. The experiment was carried out according to the protocol described in example 1 with fibroblasts extracted from a biopsy from a donor. […] The experiment was carried out according to the protocol described in example 1 with fibroblasts extracted from a biopsy of a donor.

[2] = test system: type V collagen in the ECM; experiment: Assay of type V collagen in the ECM (anticollagen V antibody, europium TRF, Delfia) after NH4OH lysis of fibroblasts; format: cell-based, human; conditions: for Coll V (RFU) Mean: 48 hours, donor; for Versus control Mean (Coll V): control = 100.00
Experimental: A lysis step was carried out: 110 μl of an ammonium hydroxide solution at 20 mM for 10 minutes at room temperature and with stirring. The collagen V in the ECM was assayed directly on the ECM by using an anticollagen V antibody. A secondary antibody conjugated to europium was used with a detection reagent and the fluorescence was measured. (Delfia® kit—Perkin Elmer). The experiment was carried out according to the protocol described in example 1 with fibroblasts extracted from a biopsy from a donor.

[3] = test system: extracellular procollagen; experiment: Procollagen ELISA (PIPc kit) on collected culture medium; format: cell-based, human
Experimental: The method described in example 1 was applied and the culture medium and lysis medium collected were analysed. On the collected culture medium, a procollagen assay was carried out (PIPc kit, TAKARA) by ELISA for determining the amount of extracellular procollagen (Table 4.1) The amounts of collagen and procollagen measured were rationalized to the amount of DNA present in each well. In experiment 6, procollagen was assayed in the culture medium collected in step b) in accordance with the method described in example 4.

[4] = test system: intracellular procollagen; experiment: Procollagen ELISA (PIPc kit) on collected lysis medium; format: cell-based, human; conditions: for Procoll Mean (intracellular procollagen) / Ratio: Procoll/DNA Mean / Stat Mean (Procoll/DNA, control = 100.00): lysis medium
Experimental: The method described in example 1 was applied and the culture medium and lysis medium collected were analysed. On the collected lysis medium, a procollagen assay (PIPc kit, TAKARA) by ELISA is carried out for determining the amount of intracellular procollagen (Table 4.2). A DNA assay (Picogreen kit, Invitrogen) was also carried out for rationalizing all of the measurements in each well to the quantity of viable cells. The amounts of collagen and procollagen measured were rationalized to the amount of DNA present in each well.

normal human fibroblasts = experiment: Double-stranded DNA assay in the cell lysate (bisbenzimide, Picogreen) for quantity of viable cells; format: cell-based; parameters: unit not given here
Experimental: The lysate was collected and analysed. The double-stranded DNA contained in the lysate was assayed by using the bisbenzimide method (Picogreen Kit, Invitrogen). On the collected lysis medium, a procollagen assay (PIPc kit, TAKARA) by ELISA is carried out for determining the amount of intracellular procollagen (Table 4.2). A DNA assay (Picogreen kit, Invitrogen) was also carried out for rationalizing all of the measurements in each well to the quantity of viable cells.

collagen I = experiment: Immunohistochemical analysis of collagen I (confocal fluorescence); format: cell-based, human; conditions: 50 μM; 72 h
Experimental: After 72 h culture postconfluency, the culture medium was removed and immunolabelling was performed. The polyclonal anti-collagen I primary antibody was applied, then after removal of the medium the secondary antibody conjugated to a fluorochrome alexa 488 is added. The fluorescence was examined under the LSM700 confocal microscope.

[5] = test system: type V collagen in the ECM; experiment: Influence of the lysis solution on the assay of type V collagen in the ECM; format: cell-based, human; conditions: for Ratio: Coll/DNA % (NH4OH = 100): repeat experiment, Table 3.2; for Ratio: Coll/DNA % (20 mM = 100.00): Table 3.3
Experimental: Thus, normal human fibroblasts obtained from abdominal biopsies were seeded in a 96-well plate and cultured in a defined medium (FGM) to 100% confluency.
After 48 hours of culture postconfluency at 37° C. under 0.5% CO2, the culture medium was collected.
The time of application of the lysis solution tested was 10 minutes at room temperature and with stirring.
The collagen V in the ECM was assayed directly on the ECM by using an anticollagen V antibody. A secondary antibody conjugated to europium was used with a detection reagent and the fluorescence was measured. (Delfia® kit—Perkin Elmer).
The experiment was repeated and the lysis solutions tested were as follows: • solution according to the invention NH4OH: 110 μl of an ammonium hydroxide solution at concentrations between 200 μM and 2 M. • Solution of monoethylamine at 20 Mm • Solution of diethylamine at 20 mM • Solution of triethylamine at 20 mM

[6] = ascorbic acid 0.1 μM, Example 4
[7] = ascorbic acid 100 μM, Example 5
[8] = ascorbic acid 100 μM, Example 4

## O=C1O[C@H]([C@@H](O)CO)C(O)=C1O [Ascorbic acid, ascorbic acid]
[1]; 50 μM, Example 6
  Coll I (RFU) Mean: 169132 RFU
  Ratio: Coll/DNA Mean (Coll I): 340.49
  Versus control Mean (Coll I): 119.53
[1]; Example 4, 0.1 to 100 μM
  effect of stimulation on the content of collagen I in the ECM (dose dependence): dose-dependent up to 50 μM
[1]; Example 5, 5 to 100 μM tested
  optimum dose for efficacy, collagen I assay: 50 µM
[1]; Example 5, collagen I and V in the ECM
  stimulation of the synthesis of collagen I and V: induces stimulation of the synthesis of collagen I and V with a significant dose effect
[1]; Example 6, ascorbic acid at 50 μM, vegetable extract 1% (v/v)
  amount of collagen I in the ECM: significant increase
[1]; [6]
  Coll I Mean: 74156
  Ratio: Coll I/DNA Mean: 233.65
  Stat Mean (Coll I/DNA, control = 100.00): 105.33
[1]; ascorbic acid 1 μM, Example 4
  Coll I Mean: 74419
  Ratio: Coll I/DNA Mean: 246.46
  Stat Mean (Coll I/DNA, control = 100.00): 111.10
[1]; ascorbic acid 5 μM, Example 5
  Coll I (RFU) Mean: 59802 RFU
  Ratio: Coll/DNA Mean (Coll I): 273.40
  Versus control Mean (Coll I): 125.69
[1]; ascorbic acid 10 μM, Example 5
  Coll I (RFU) Mean: 59569 RFU
  Ratio: Coll/DNA Mean (Coll I): 239.53
  Versus control Mean (Coll I): 110.12
[1]; ascorbic acid 10 μM, Example 4
  Coll I Mean: 78694
  Ratio: Coll I/DNA Mean: 280.82
  Stat Mean (Coll I/DNA, control = 100.00): 126.59
[1]; ascorbic acid 25 μM, Example 5
  Coll I (RFU) Mean: 59088 RFU
  Ratio: Coll/DNA Mean (Coll I): 254.84
  Versus control Mean (Coll I): 117.16
[1]; ascorbic acid 50 μM, Example 5
  Coll I (RFU) Mean: 54454 RFU
  Ratio: Coll/DNA Mean (Coll I): 309.87
  Versus control Mean (Coll I): 130.66
[1]; ascorbic acid 50 μM, Example 4
  Coll I Mean: 79146
  Ratio: Coll I/DNA Mean: 284.31
  Stat Mean (Coll I/DNA, control = 100.00): 128.17
[1]; [7]
  Coll I (RFU) Mean: 50765 RFU
  Ratio: Coll/DNA Mean (Coll I): 249.31
  Versus control Mean (Coll I): 114.62
[1]; [8]
  Coll I Mean: 79796
  Ratio: Coll I/DNA Mean: 273.96
  Stat Mean (Coll I/DNA, control = 100.00): 123.50
[2]; ascorbic acid 5 μM
  Ratio: Coll/DNA Mean (Coll V): 59.83
  Coll V (RFU) Mean: 12644 RFU
  Versus control Mean (Coll V): 117.16
[2]; ascorbic acid 10 μM
  Ratio: Coll/DNA Mean (Coll V): 58.76
  Coll V (RFU) Mean: 14127 RFU
  Versus control Mean (Coll V): 115.06
[2]; ascorbic acid 25 μM
  Ratio: Coll/DNA Mean (Coll V): 68.69
  Coll V (RFU) Mean: 16172 RFU
  Versus control Mean (Coll V): 134.49
[2]; ascorbic acid 50 μM
  Ratio: Coll/DNA Mean (Coll V): 68.86
  Coll V (RFU) Mean: 16230 RFU
  Versus control Mean (Coll V): 134.82
[2]; ascorbic acid 100 μM
  Ratio: Coll/DNA Mean (Coll V): 73.12
  Coll V (RFU) Mean: 17994 RFU
  Versus control Mean (Coll V): 143.17
[3]; 50 μM, Example 7
  Procoll (ng/ml) Mean: 1983 ng/mL
  Ratio: Procoll/DNA Mean: 4.01
[3]; 50 μM, Example 7, control = 100
  Versus control Mean (ProColl/DNA): 171.17
[3]; ascorbic acid 0.1 μM
  Procoll Mean (extracellular procollagen): 1987 ng/mL
  Ratio: Procoll/DNA Mean: 6.26
  Stat Mean (Procoll/DNA, control = 100.00): 100.75
[3]; ascorbic acid 1 μM
  Procoll Mean (extracellular procollagen): 1983 ng/mL
  Ratio: Procoll/DNA Mean: 6.57
  Stat Mean (Procoll/DNA, control = 100.00): 105.74
[3]; ascorbic acid 10 μM
  Procoll Mean (extracellular procollagen): 2756 ng/mL
  Ratio: Procoll/DNA Mean: 9.83
  Stat Mean (Procoll/DNA, control = 100.00): 158.16
[3]; ascorbic acid 50 μM
  Procoll Mean (extracellular procollagen): 2852 ng/mL
  Ratio: Procoll/DNA Mean: 10.25
  Stat Mean (Procoll/DNA, control = 100.00): 164.89
[3]; ascorbic acid 100 μM
  Procoll Mean (extracellular procollagen): 2845 ng/mL
  Ratio: Procoll/DNA Mean: 9.78
  Stat Mean (Procoll/DNA, control = 100.00): 157.30
[4]; Example 4
  procollagen concentration in the intracellular compartment: less than that observed with the untreated control
[4]; ascorbic acid 0.1 μM
  Procoll Mean (intracellular procollagen): 116 ng/mL
  Ratio: Procoll/DNA Mean: 0.37
  Stat Mean (Procoll/DNA, control = 100.00): 102.85
[4]; ascorbic acid 1 μM
  Procoll Mean (intracellular procollagen): 108 ng/mL
  Ratio: Procoll/DNA Mean: 0.36
  Stat Mean (Procoll/DNA, control = 100.00): 100.76
[4]; ascorbic acid 10 μM
  Procoll Mean (intracellular procollagen): 114 ng/mL
  Ratio: Procoll/DNA Mean: 0.41
  Stat Mean (Procoll/DNA, control = 100.00): 108.02
[4]; ascorbic acid 50 μM
  Procoll Mean (intracellular procollagen): 60 ng/mL
  Ratio: Procoll/DNA Mean: 0.22
  Stat Mean (Procoll/DNA, control = 100.00): 60.83
[4]; ascorbic acid 100 μM
  Procoll Mean (intracellular procollagen): 66 ng/mL
  Ratio: Procoll/DNA Mean: 0.23
  Stat Mean (Procoll/DNA, control = 100.00): 63.69
Normal human fibroblasts; 50 μM, Example 6 and 7
  DNA Mean: 497.4 and 497.3
Normal human fibroblasts; [6]
  DNA Mean: 318
Normal human fibroblasts; ascorbic acid 1 μM, Example 4
  DNA Mean: 303
Normal human fibroblasts; ascorbic acid 5 μM, Table 5.3
  DNA Mean: 220
Normal human fibroblasts; ascorbic acid 5 μM, Table 5.4
  DNA Mean: 212
Normal human fibroblasts; ascorbic acid 10 μM, Example 4
  DNA Mean: 281
Normal human fibroblasts; ascorbic acid 10 μM, Table 5.3
  DNA Mean: 249
Normal human fibroblasts; ascorbic acid 10 μM, Table 5.4
  DNA Mean: 241
Normal human fibroblasts; ascorbic acid 25 μM, Table 5.3
  DNA Mean: 232
Normal human fibroblasts; ascorbic acid 25 μM, Table 5.4
  DNA Mean: 236
Normal human fibroblasts; ascorbic acid 50 μM, Example 4
  DNA Mean: 279
Normal human fibroblasts; ascorbic acid 50 μM, Table 5.3
  DNA Mean: 180
Normal human fibroblasts; ascorbic acid 50 μM, Table 5.4
  DNA Mean: 236
Normal human fibroblasts; [8]
  DNA Mean: 291
Normal human fibroblasts; ascorbic acid 100 μM, Table 5.3
  DNA Mean: 204
Normal human fibroblasts; ascorbic acid 100 μM, Table 5.4
  DNA Mean: 246
Collagen I
  Area/cells % (control = 100): 114.96%
  Area/cells Mean (collagen I fluorescence): 124238.13

## CCNCC [Diethylamine, diethylamine]
[5]
  Ratio: Coll/DNA % (NH4OH = 100): 17.33%

## CCN [Monoethylamine, monoethylamine]
[5]
  Ratio: Coll/DNA % (NH4OH = 100): 23.78%

## N [NH4OH, ammonium hydroxide]
[5]; NH4OH 200 μM
  Ratio: Coll/DNA % (20 mM = 100.00): 117.43%
[5]; NH4OH 2 mM
  Ratio: Coll/DNA % (20 mM = 100.00): 131.56%
[5]; NH4OH 20 mM
  Ratio: Coll/DNA % (20 mM = 100.00): 100.00%
[5]; NH4OH 200 mM
  Ratio: Coll/DNA % (20 mM = 100.00): 86.47%
[5]; NH4OH 2M
  Ratio: Coll/DNA % (20 mM = 100.00): 67.67%
[5]
  Ratio: Coll/DNA % (NH4OH = 100): 100%

## CCN(CC)CC [Triethylamine, triethylamine]
[5]
  Ratio: Coll/DNA % (NH4OH = 100): 21.13%

Source: US20130017537A1, “METHOD OF IN-VITRO IMMUNOASSAY” (BASF Beauty Care Solutions France S.A.S., priority 2011, published 2013)
